Measured values from patent publication US12109184B2, “Personalized methods of treating cancer” (CANCER RESEARCH TECHNOLOGY LIMITED, priority 2020, dated 2024).

Key:
Assay type in all cases: cell-based
[1] = system: HCT116, SW480 and MDA-MB-468 cells; test: Cell counting during cysteine starvation, starvation-resistant cell lines
Protocol: (§1) The base medium formulation contained 0.2 mM L-histidine, 0.4 mM L-isoleucine, 0.4 mM L-leucine, 0.4 mM L-lysine, 0.2 mM L-phenylalanine, 0.4 mM L-threonine, 0.08 mM L-tryptophan, 0.4 mM L-valine, 0.2 mM L-arginine, 2 mM L-glutamine, 0.2 mM L-tyrosine, 0.4 mM L-alanine, 0.3 mM L-proline, 0.15 mM L-glutamic acid, 0.1 mM L-aspartic acid, 0.2 mM L-asparagine, and 0.4 mM glycine.
(§2) DAPI-stained cell nuclei were detected via microscopy.
(§3) AMD1 inhibitor sardomozide/SAM486A, GPX4 inhibitor RSL3, and CSE inhibitor beta-cyano-L-alanine were used.
(§4) For experiments using spermine oxidase (SMOX) and polyamine oxidase (PAOX) inhibitors or MTOB, cells were pre-treated with stated concentrations for 16 hours in complete medium. After pre-treatment, cells were washed in PBS, and treatment was continued in complete or cysteine-free medium for stated times. After treatment was finished, cells were fixed and stained as described above. For experiments using MTA, polyamines, GPX4 and CSE inhibitors, treatment started at the same time as cysteine starvation. For experiments involving hypoxic conditions, cells were seeded in normoxic conditions and allowed to adhere for 24 hours before control and cysteine starvation medium was added and cells were immediately transferred either to a humidified cell culture incubator set to 37° C. in 20% O2 (normoxia), or a hypoxia chamber set to 37° C. in 1% O2 (hypoxia) for the stated times. Cells were fixed immediately and stained as described above.

[2] = system: SW480 and MDA-MB-231 cells; test: Cell counting, rescue by cysteine precursors during cysteine starvation; conditions: supplement at 0.2 mM
Protocol: HCT116, SW480, MDA-MB-468, MDA-MB-231, AsPC-1, BxPC-3, CFPAC-1, MIAPaCa-2, PANC-1, Panc10.05, SW1990, U-251, LN-18, LN-229, T98G, U-343, A-172 cells were used. Cell lines were authenticated using Short Tandem Repeat (STR) profiling and tested for mycoplasma. Colorectal and breast cancer cell lines were grown in Dulbecco's Modified Eagle Medium (DMEM), pancreatic ductal adenocarcinoma (PDAC) cell lines were grown in Roswell Park Memorial institute (RPMI) 1640. All cell lines were supplemented with penicillin-streptomycin, amphotericin, 2 mM L-glutamine, and 10% fetal bovine serum (FBS). Cells were kept at 37° C. in 5% CO2 in a humidified cell culture incubator. A formulated medium lacking cysteine, cystine, methionine, and serine was used as a base for creating experimental media. The base medium formulation contained 0.2 mM L-histidine, 0.4 mM L-isoleucine, 0.4 mM L-leucine, 0.4 mM L-lysine, 0.2 mM L-phenylalanine, 0.4 mM L-threonine, 0.08 mM L-tryptophan, 0.4 mM L-valine, 0.2 mM L-arginine, 2 mM L-glutamine, 0.2 mM L-tyrosine, 0.4 mM L-alanine, 0.3 mM L-proline, 0.15 mM L-glutamic acid, 0.1 mM L-aspartic acid, 0.2 mM L-asparagine, and 0.4 mM glycine. The base medium was supplemented with 10% dialyzed FBS, penicillin-streptomycin, and amphotericin. To ensure an adequate supply of vitamin B6 (a crucial co-factor for de novo cysteine synthesis), base medium was supplemented with additional 20 μM vitamin B6. The control experimental medium was the base medium supplemented with 0.4 mM L-cysteine, 0.2 mM L-methionine, and 0.4 mM L-serine. The cysteine starvation (−Cys) experimental medium was base medium supplemented with 0.2 mM L-methionine and 0.4 mM L-serine.
Cells were seeded at 6×10^4 cells per well into 24-well plates (triplicate wells per condition) in the relevant complete medium and adhered for a full 24-hour period. A ‘time-0’ plate was included to record the starting cell number to calculate relative cell numbers. Cells were washed once with phosphate-buffered saline (PBS) before receiving experimental medium containing or lacking the specified amino acids, metabolites, or drugs. At the stated time-points the medium was removed, cells were fixed in a 4% formalin-PBS solution. Cells were then washed and stored in PBS before staining with 4′,6-diamidino-2-phenylindole (DAPI)-Triton™ X100-PBS solution for 1 hour, followed by storage in PBS at 4° C. until further analysis. DAPI-stained cell nuclei were detected via microscopy.
Homocysteine, cystathionine, glutathione, putrescine, spermine, spermidine, GPX4 inhibitor ML210, SMOX inhibitor MDL 72527, PAOX inhibitor diminazene aceturate, ferrostatin-1 and erastin were used. AMD1 inhibitor sardomozide/SAM486A, GPX4 inhibitor RSL3, and CSE inhibitor beta-cyano-L-alanine were used. […]

[3] = system: MDA-MB-231 cells; test: Steady state metabolite measurements by LC-MS; conditions: medium lacking cysteine, supplement 0.2 mM
Protocol: Metabolomics experiments were performed as follows. Cells were seeded into 6-well plates (5×10^5-1.5×10^6 cells/mL, depending on time-course, triplicate wells per condition) in complete medium and adhered overnight. Cells were washed with PBS, and the relevant experimental media were added for the stated times. Duplicate wells were used for cell counting. Cell counts were used to normalize the volume of lysis solvent prior to metabolite extractions (2×10^6 cells/mL). Cells were washed quickly in PBS, then ice-cold lysis solvent (methanol 50%, acetonitrile 30%, water 20%) was added, and cells were scraped on ice. Lysates were transferred to 1.5 mL tubes on ice, vortexed, then spun by centrifugation at 15,000 rpm at 4° C. for 10 minutes. Supernatants were collected and stored at -80° C. for LC-MS analysis. Prepared samples were analyzed on an LC-MS platform consisting of an […] system and an ExactiveTM mass spectrometer. A Sequant® ZIC®-HILIC column (4.6 mm×150 mm, 3.5 μm) was used to separate the metabolites with the mobile phase using A=0.1% (v/v) formic acid in water and B=0.1% (v/v) formic acid in acetonitrile. A gradient program starting at 20% of A and linearly increasing to 80% at 30 min was used followed by washing (92% of A for 5 mins) and re-equilibration (20% of A for 10 min) steps. The total run time of the method was 45 min. The LC stream was desolvated and ionized in the HESI probe. The ExactiveTM mass spectrometer was operated in full scan mode over a mass range of 70-1,200 m/z at a resolution of 50,000 with polarity switching. The LC-MS raw data was converted into mzML files by using ProteoWizard and imported to MZMine 2.10 for peak extraction and sample alignment. An in-house database including all possible ^13C and ^15N isotopic m/z values of the relevant metabolites was used for the assignment of LCMS signals. Finally the peak areas were used for comparative quantification.

[4] = system: breast, colorectal and pancreatic cancer cell lines; test: Cell counting in complete or cysteine-free medium, cell lines not given; conditions: supplementation during cysteine starvation
Protocol: as §1, §2, §3, §4

[5] = system: MDA-MB-231, MIAPaCa-2 and PANC-1 cells; test: Cell counting during cysteine starvation, starvation-sensitive cell lines
Protocol: as §1, §2, §3, §4

[6] = system: MTAP-deleted HCT116 cells; test: Cell counting during cysteine starvation, MTAP-deleted HCT116
Text: [NT] Successfully transfected cells were selected with puromycin and grown as clonal colonies. Clones were selected based initially on MTA efflux measured by liquid chromatography mass spectrometry (LC-MS). Clones with greatest MTA efflux were selected, and methylthioadenosine phosphorylase knockout (MTAP-KO) was then confirmed by western blot. MTAP-KO HCT116 cells were transfected with pCMV-Hygro-MTAP and pCMV-Hygro-negative control vector, selected using hygromycin B, and grown as clonal colonies. Clones were selected based initially on MTA efflux measured by LC-MS. Clones with low MTA efflux were selected, then MTAP re-expression was confirmed by western blot. […] DAPI-stained cell nuclei were detected via microscopy. […] For experiments using spermine oxidase (SMOX) and polyamine oxidase (PAOX) inhibitors or MTOB, cells were pre-treated with stated concentrations for 16 hours in complete medium. After pre-treatment, cells were washed in PBS, and treatment was continued in complete or cysteine-free medium for stated times. After treatment was finished, cells were fixed and stained as described above. For experiments using MTA, polyamines, GPX4 and CSE inhibitors, treatment started at the same time as cysteine starvation. For experiments involving hypoxic conditions, cells were seeded in normoxic conditions and allowed to adhere for 24 hours before control and cysteine starvation medium was added and cells were immediately transferred either to a humidified cell culture incubator set to 37° C. in 20% O2 (normoxia), or a hypoxia chamber set to 37° C. in 1% O2 (hypoxia) for the stated times. Cells were fixed immediately and stained as described above.

[7] = system: MTAP-expressing HCT116 cells; test: Cell counting during cysteine starvation, MTAP-expressing HCT116; conditions: SMOX inhibitor, PAOX inhibitor or MTOB supplementation
Text: [NT] Successfully transfected cells were selected with puromycin and grown as clonal colonies. Clones were selected based initially on MTA efflux measured by liquid chromatography mass spectrometry (LC-MS). Clones with greatest MTA efflux were selected, and methylthioadenosine phosphorylase knockout (MTAP-KO) was then confirmed by western blot. MTAP-KO HCT116 cells were transfected with pCMV-Hygro-MTAP and pCMV-Hygro-negative control vector, selected using hygromycin B, and grown as clonal colonies. Clones were selected based initially on MTA efflux measured by LC-MS. Clones with low MTA efflux were selected, then MTAP re-expression was confirmed by western blot. […] DAPI-stained cell nuclei were detected via microscopy. For experiments using spermine oxidase (SMOX) and polyamine oxidase (PAOX) inhibitors or MTOB, cells were pre-treated with stated concentrations for 16 hours in complete medium. After pre-treatment, cells were washed in PBS, and treatment was continued in complete or cysteine-free medium for stated times. After treatment was finished, cells were fixed and stained as described above. For experiments using MTA, polyamines, GPX4 and CSE inhibitors, treatment started at the same time as cysteine starvation. For experiments involving hypoxic conditions, cells were seeded in normoxic conditions and allowed to adhere for 24 hours before control and cysteine starvation medium was added and cells were immediately transferred either to a humidified cell culture incubator set to 37° C. in 20% O2 (normoxia), or a hypoxia chamber set to 37° C. in 1% O2 (hypoxia) for the stated times. Cells were fixed immediately and stained as described above.

SMILES: N#CC[C@H](N)C(=O)O [beta-cyano-L-alanine]
- response to CSE inhibition during cysteine starvation ([1]; HCT116, CSE inhibitor 0.5 mM or 1 mM, 48 h): only a modest response
- sensitivity to cysteine starvation ([1]; SW480 and MDA-MB-468, CSE inhibitor 0.5 mM or 1 mM, 48 h): increased the sensitivity to cysteine starvation

SMILES: N[C@@H](CCSC[C@H](N)C(=O)O)C(=O)O [cystathionine]
- rescue of survival/proliferation during cysteine starvation [2]: substantial rescue
- intracellular cysteine levels [3]: moderate increases
- intracellular homocysteine and cystathionine levels [3]: significantly increased
- intracellular γ-glutamylcysteine and GSH levels [3]: more marked increases
- rescue from cysteine starvation-induced cell death (summary in discussion) [4]: rescued from starvation-induced cell death

SMILES: CC(=O)NCC(=O)O.CC(=O)NCC(=O)O.N=C(N)c1ccc(N=NNc2ccc(C(=N)N)cc2)cc1 [diminazene aceturate]
- cell death during cysteine starvation ([5]; SMOX inhibitor 50 μM or PAOX inhibitor 10, 40, 80 μM, 16 h pre-treatment then −Cys): prevented cell death
- cell survival during cysteine starvation ([6]; SMOX inhibitor, PAOX inhibitor or MTOB supplementation): rescued cell survival
- impact on cell survival during cysteine starvation [7]: little impact
- cell survival and growth under polyamine treatment concurrent with cysteine starvation ([1]; SMOX and PAOX inhibitors with spermidine or spermine, −Cys): restored HCT116, SW480, and MDA-MB-468 cell survival and growth
- advantage during cysteine starvation ([1]; SMOX or PAOX inhibitor, 16 h pre-treatment then −Cys): little or no additional advantage

SMILES: CCOC(=O)c1ccc(NC2CCCCC2)c(N)c1 [ferrostatin, ferrostatin-1]
- proliferation during cysteine starvation ([5]; ferrostatin 1 μM): did not restore proliferation
- cell death in response to cysteine starvation ([5]; sensitive cells, ferrostatin 1 μM, 24 h and 72 h): prevented cell death
- rescue of increased sensitivity to cysteine starvation ([6]; ferrostatin): rescued
- impact on response to cysteine starvation ([1]; more resistant cells, ferrostatin 1 μM, 24 h and 72 h): little impact
